Measured values published in patent US20210139453A1, “(HETERO)ARYL SULFONAMIDE COMPOUND AND FORMULATION FOR CONTROLLING HARMFUL ORGANISMS” (Nippon Soda Co., Ltd., priority 2018, published 2021).

Tested on: Mythimna separata
Experiment: Efficacy test against Mythimna separata (artificial feed mixed with emulsion)
Settings: in vivo
Excerpt: Five parts of the (hetero)aryl sulfonamide compound of the present invention, 93.6 parts of dimethylformamide and 1.4 parts of a polyoxyethylene alkyl aryl ether were mixed together and dissolved to obtain an emulsion (I) containing 5% of the active ingredient.
For the control, 93.6 parts of dimethylformamide and 1.4 parts of a polyoxyethylene alkyl aryl ether were mixed together and dissolved to obtain an emulsion (II).
Insect mortality rate(%)=(number of dead insects/number of test insects)×100 Nematode mortality rate(%)=(number of dead nematodes/number of test nematodes)×100
First, 0.8 g of a commercially-available artificial feed (Insecta LFS, manufactured by Nosan Corporation) and 1 μl of the emulsion (I) were mixed well, and thereby, a test feed was obtained. Subsequently, 0.2 g of the test feed was placed in each of the treatment areas of a plastic test container (volume: 1.4 ml). Subsequently, two second-instar larvae of Mythimna separata were inoculated into each treatment area, and a plastic lid was placed on the test container to prevent the larvae from escaping. The closed container was placed in a thermostatic chamber at 25° C. On the 5th day therefrom, the insect mortality rate and the amount of feed consumed were checked. The test was repeated.
In addition, for a control area, the insect mortality rate and the amount of feed consumed were checked in the same manner as that described in Test Example 1, with the exception of replacing the emulsion (I) with the emulsion (II).

SMILES	insect mortality rate against Mythimna separata
O=S(=O)(Nc1cc(C(F)(F)F)ccc1-c1nc2cc(Cl)c(Cl)cc2[nH]1)C(F)(F)F [Compound 2-3]	100%
O=S(=O)(N(c1cc(C(F)(F)F)ccc1-c1nc2cc(C(F)(F)F)ccc2[nH]1)S(=O)(=O)C(F)(F)F)C(F)(F)F [Compound 2-5]	100%
O=S(=O)(Nc1cc(C(F)(F)F)ccc1-c1nc2cc(C(F)(F)F)ccc2[nH]1)C(F)(F)F [Compound 2-6]	100%
O=S(=O)(Nc1cc(C(F)(F)F)ccc1-c1nc2cc(F)c(F)cc2[nH]1)C(F)(F)F [Compound 2-8]	100%
O=S(=O)(Nc1cc(F)c(F)cc1-c1nc2cc(F)c(F)cc2[nH]1)C(F)(F)F [Compound 2-9]	100%
CCS(=O)(=O)Nc1cc(C(F)(F)F)ccc1-c1nc2cc(F)c(F)cc2[nH]1 [Compound 2-14]	100%
O=S(=O)(Nc1cc(C(F)(F)F)ccc1-n1cnc(-c2ccc(Br)cc2)n1)C(F)(F)F [Compound 2-15]	100%
O=S(=O)(Nc1cc(C(F)(F)F)ccc1-n1cc(-c2ccc(Cl)cc2)cn1)C(F)(F)F [Compound 2-16]	100%
CCS(=O)(=O)Nc1cc(C(F)(F)F)ccc1-n1cnc(-c2ccc(Br)cc2)n1 [Compound 2-17]	100%
O=S(=O)(Nc1cc(C(F)(F)F)ccc1-n1ccc(-c2ccc(Cl)cc2)n1)C(F)(F)F [Compound 2-18]	100%
O=S(=O)(Nc1cc(C(F)(F)F)ccc1-n1ccc(-c2ccc(C(F)(F)F)cc2)n1)C(F)(F)F [Compound 2-22]	100%
O=S(=O)(Nc1cc(C(F)(F)F)ccc1-c1nc(-c2ccc(Cl)cc2)no1)C(F)(F)F [Compound 2-25]	100%
O=S(=O)(Nc1cc(C(F)(F)F)ccc1-c1ccc(C(F)(F)F)cn1)C(F)(F)F [Compound 2-36]	100%
O=S(=O)(CC(F)(F)F)Nc1cc(C(F)(F)F)cnc1-n1ccc(C(F)(F)F)n1 [Compound 3-8]	100%
Cc1c(Br)c(C(F)(F)F)nn1-c1ncc(C(F)(F)F)cc1NS(=O)(=O)C(F)(F)F [Compound 3-46]	100%
O=S(=O)(Nc1cc(C(F)(F)F)cnc1-c1cccc(C(F)(F)F)n1)C(F)(F)F [Compound 3-47]	100%
